Test results reported in ChEMBL document CHEMBL1770126, “Molecular probes for the A2A adenosine receptor based on a pyrazolo[4,3-e][1,2,4]triazolo[1,5-c]pyrimidin-5-amine scaffold” (Bioorg Med Chem Lett, 2011).

How the values were obtained:
Format in all cases: cell-based
[1] = biological target: Adenosine receptor A2a (Homo sapiens, UniProt P29274); test: Displacement of [3H]CGS21680 from human recombinant adenosine A2A receptor expressed in HEK293 cells after 60 mins by liquid scintillation counting
Chain of Adenosine receptor A2a (P29274 whole entry): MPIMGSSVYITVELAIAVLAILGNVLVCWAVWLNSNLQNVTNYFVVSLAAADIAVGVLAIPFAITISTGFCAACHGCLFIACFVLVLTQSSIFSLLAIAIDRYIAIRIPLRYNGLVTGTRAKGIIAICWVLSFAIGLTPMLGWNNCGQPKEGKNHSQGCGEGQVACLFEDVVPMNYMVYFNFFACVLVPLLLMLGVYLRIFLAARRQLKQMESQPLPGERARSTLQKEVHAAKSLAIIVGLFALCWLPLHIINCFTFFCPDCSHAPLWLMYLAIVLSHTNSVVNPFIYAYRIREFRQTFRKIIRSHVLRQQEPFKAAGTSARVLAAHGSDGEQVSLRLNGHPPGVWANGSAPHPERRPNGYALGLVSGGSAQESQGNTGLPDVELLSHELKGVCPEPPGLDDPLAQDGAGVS

[2] = biological target: T1, Adenosine receptor A1 (Homo sapiens) (UniProt P30542); test: Displacement of [3H]DPCPX from human recombinant adenosine A1 receptor expressed in CHO cells at 10 uM after 60 mins by liquid scintillation counting
T1 sequence (whole entry): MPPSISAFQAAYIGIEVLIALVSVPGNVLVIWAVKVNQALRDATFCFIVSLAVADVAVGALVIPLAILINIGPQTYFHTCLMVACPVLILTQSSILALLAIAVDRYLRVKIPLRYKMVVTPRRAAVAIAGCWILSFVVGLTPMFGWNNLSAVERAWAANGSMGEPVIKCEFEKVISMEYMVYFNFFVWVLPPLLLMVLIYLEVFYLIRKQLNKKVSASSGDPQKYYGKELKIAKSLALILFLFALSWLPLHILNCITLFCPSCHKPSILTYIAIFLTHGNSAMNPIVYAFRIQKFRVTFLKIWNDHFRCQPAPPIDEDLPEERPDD

[3] = biological target: T2, Adenosine receptor A3 (Homo sapiens) (UniProt P0DMS8); test: Displacement of [125I]I-AB-MECA from human recombinant adenosine A3 receptor expressed in CHO cells at 10 uM after 60 mins by gamma scintillation counting
T2 sequence (whole entry): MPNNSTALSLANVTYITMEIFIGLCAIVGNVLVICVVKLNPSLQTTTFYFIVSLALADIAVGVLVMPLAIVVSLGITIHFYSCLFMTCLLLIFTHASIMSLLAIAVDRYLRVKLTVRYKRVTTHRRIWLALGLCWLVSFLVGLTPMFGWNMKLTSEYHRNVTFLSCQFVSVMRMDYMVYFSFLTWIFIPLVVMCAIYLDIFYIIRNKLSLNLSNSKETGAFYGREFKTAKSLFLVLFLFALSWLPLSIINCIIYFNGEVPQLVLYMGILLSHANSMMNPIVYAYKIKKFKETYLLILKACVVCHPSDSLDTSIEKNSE

[4] = biological target: T3, Adenosine receptor A3 (Homo sapiens, UniProt P0DMS8); test: Displacement of [125I]I-AB-MECA from human recombinant adenosine A3 receptor expressed in CHO cells after 60 mins by gamma scintillation counting
T3 sequence (P0DMS8 whole entry): T2 sequence (whole entry)

[5] = biological target: T4, Adenosine receptor A1 (Homo sapiens, UniProt P30542); test: Displacement of [3H]DPCPX from human recombinant adenosine A1 receptor expressed in CHO cells after 60 mins by liquid scintillation counting
T4 sequence (P30542 whole entry): T1 sequence (whole entry)

Row | SMILES | Ki [1] [nM] | inhibition [2] [%] | inhibition [3] [%] | Ki [4] [nM] | Ki [5] [nM]
1 | N=c1ccc2c(-c3ccc(C(=O)NCCNC(=O)COc4ccc(CCCn5ncc6c5nc(N)n5nc(-c7ccco7)nc65)cc4)cc3C(=O)O)c3ccc(N)c(S(=O)(=O)O)c3oc-2c1S(=O)(=O)O | 111 | 20 | 4 | – | –
2 | CC(=O)NCCn1cc(CCCCC(=O)NCCNC(=O)COc2ccc(CCCn3ncc4c3nc(N)n3nc(-c5ccco5)nc43)cc2)nn1 | 220 | – | – | 302 | 1700
3 | NCCNCCNC(=O)COc1ccc(CCCn2ncc3c2nc(N)n2nc(-c4ccco4)nc32)cc1 | 10.7 | 20 | – | 3290 | –
4 | NCCNC(=O)COc1ccc(CCCn2ncc3c2nc(N)n2nc(-c4ccco4)nc32)cc1 | 6.8 | – | – | 3970 | 1270
5 | Nc1nc2c(cnn2CCCc2ccc(OCCCF)cc2)c2nc(-c3ccco3)nn12 | 53.6 | – | – | 1320 | 1000
6 | CN(C)c1ccc2c(-c3ccc(C(=O)NCCNC(=O)COc4ccc(CCCn5ncc6c5nc(N)n5nc(-c7ccco7)nc65)cc4)cc3C(=O)[O-])c3ccc(=[N+](C)C)cc-3oc2c1 | 357 | 7 | 24 | – | –

Continued, values first:

Row | Ki [1] [nM] | inhibition [2] [%] | inhibition [3] [%] | Ki [4] [nM] | Ki [5] [nM] | SMILES
7 | 96 | – | 50 | – | 4840 | COC(=O)COc1ccc(CCCn2ncc3c2nc(N)n2nc(-c4ccco4)nc32)cc1
8 | 15.1 | – | 28 | – | – | Nc1nc2c(cnn2CCCc2ccc(OCC(=O)NCCNCCNC(=O)CCCCCNC(=O)COc3ccc(/C=C/C4=[N+]5C(=Cc6ccc(-c7ccc[nH]7)n6[B-]5(F)F)C=C4)cc3)cc2)c2nc(-c3ccco3)nn12
9 | 75.4 | – | – | 1280 | 1100 | C#CCCCCC(=O)NCCNC(=O)COc1ccc(CCCn2ncc3c2nc(N)n2nc(-c4ccco4)nc32)cc1
10 | 10.2 | – | 29 | – | 1700 | Nc1nc2c(cnn2CCCc2ccc(OCC(=O)O)cc2)c2nc(-c3ccco3)nn12
11 | – | 35 | – | – | – | COc1ccc(CCCn2ncc3c2nc(N)n2nc(-c4ccco4)nc32)cc1
12 | – | – | – | – | 4440 | Nc1nc2c(cnn2CCCc2ccc(O)cc2)c2nc(-c3ccco3)nn12
